Reference: patent publication US20060089260A1, “Nitrification inhibitor treatment of grazed pasture soils” (priority 2002, published 2006)
Where “and” joins values, the source holds several entries; their conditions need not be identical. Equal values may be shown once.

Key:
[1] = test system: nitrification in soil (oxidation of NH4+ to NO2−); assay: Nitrous oxide emissions from urine-treated lysimeters, closed chamber method; conditions: for Total nitrous oxide emission: urine + DCD, standard error of the mean in brackets; for Nitrous oxide (N2O) emissions: with DCD
Procedure: Nitrous oxide emissions from two treatments were determined using a closed chamber method. The enclosed chamber was fitted on top of the lysimeters inside a rubber ring on top of the lysimeter casing. At each sampling time, 3 samples, 10-15 minutes apart, were taken. Nitrous oxide was analysed using gas chromatography and daily N2O fluxes were calculated based on daily mean temperatures.

[2] = test system: nitrification in soil (oxidation of NH4+ to NO2−); assay: Lysimeter study of NO3−-N leaching from grazed dairy pasture soil (Lismore stony silt loam); conditions: for Total annual NO3−-N leaching loss: lysimeter
From the text: (§1) Lysimeter studies, which are state-of-the-art technology for these investigations, have shown the effectiveness of a nitrification inhibitor, dicyandiamide (DCD), in reducing NO3^−—N leaching from a grazed dairy pasture under irrigation. This example used a free-draining Lismore stony silt loam (Udic Haplustept loamy skeletal) and the pasture was a mixture of perennial ryegrass (Lolium perenne) and white clover (Tifolium repens) but the process is applicable to all temperate soils and animal grazing systems.
(§2) Undisturbed soil monolith lysimeters, 50 cm diameter and 70 cm deep, were collected following well-established protocols and procedures that ensure there is minimal disturbance to the soil structure inside. The lysimeters were transported to a lysimeter facility near Lincoln University, using a specially designed trailer with air-bag suspension to minimize disturbance. The gap between the soil core and the metal casing was sealed using petroleum jelly to stop edge-flow effects. The lysimeters were then installed in the field lysimeter facility with the surface of the lysimeters at the same level as that of the surrounding soil surface, in order to maintain normal plant growing conditions.
(§3) Each treatment had 4 replicates. The treatments were allocated to the lysimeters in a randomised design. The urea application rate of 200 kg N ha^−1 y^−1 was at the higher end of fertilizer N application rates for most farmers in the region. The rates of urea were either split into 8 applications to maximize N efficiency, or 4 applications as a cost cutting measure (i.e. reducing application costs). Urine was applied either in the spring (November) or in the autumn (April) to simulate urine patches deposited in the spring or autumn by a grazing dairy cow. The urine application rate of 1000 kg N ha^−1 was equivalent to the typical N loading rate under a cow urine patch. The combination of urea with urine treatments was included to represent a situation where urea was applied throughout the paddock, and patches of the paddock received cow urine. Two rates of phosphate (P) fertilizer were applied, 45 or 90 kg P ha^−1 y^−1, to represent the range of P application rates used by local dairy farmers. As the purpose of this study was to determine the effectiveness of DCD in reducing NO3^− leaching from grazed pasture soil including cow urine patch areas, DCD was either applied or withheld. The DCD was applied in a liquid form to simulate application in the irrigation water on irrigated dairy farms or by spray vehicle.
Urea was applied in solid form and was broadcast over the surface of the lysimeters followed by 10 mm of irrigation.
Fresh urine was collected early in the morning during the milking session from Friesian cows, and was analysed and applied to the lysimeters on the same day.
(§4) DCD was applied in solution form (100 mL per lysimeter) at the rates of 7.5 kg ha^−1 after each urea application in the same day, or 15 kg ha^−1 immediately after each urine application. The DCD solution was sprayed onto the lysimeters with a watering can, simulating an application by an irrigator or spray vehicle.
(§5) From November to April (late spring to mid autumn), flood irrigation, at 100 mm, was applied to all the lysimeters at about three weekly intervals. The amount of water applied was to represent the average amount of water applied on commercial flood-irrigated dairy farms. Irrigation water was applied using an electronically controlled metering system to deliver the required volume of water to the lysimeters. From May to October (late autumn to mid spring), simulated rainfall was applied at the end of each month (if necessary), to supplement the natural rainfall received in order to equal the 75th percentile of local rainfall records for the same period of the year. This was done to create a so-called ‘worst case scenario’ in terms of rainfall inputs and to ensure a standard condition was achieved.

nitrification in soil [3] = conditions: cited from earlier work
[4] = test system: pasture, mixture of perennial ryegrass (Lolium perenne) and white clover (Tifolium repens); assay: Lysimeter study of pasture yield and pasture N off-take; conditions: for Increase in pasture yields: lysimeters
From the text: as §1, §3, §4
The herbage was cut periodically to simulate typical grazing practice. All the harvested herbage was removed and dry matter yield recorded. Herbage nitrogen content was analysed. Following each herbage cut, a specially designed mechanical cow hoof was used to simulate cow treading on the lysimeters. The mechanical hoof is made of stainless steel with identical shape and size as an adult Friesian cow hoof. The hoof is mounted onto a compressed air-ram, which is driven by an air compressor system to provide a treading pressure of 220 kPa to simulate the treading pressure exerted by a cow's hoof during walking. The entire surface of the lysimeters was trodden once following each herbage cut. This was based on the inventors observation of hoof print coverage following each grazing rotation.

grazed dairy pasture = assay: Field plot experiment on Temuka soil, pasture response to DCD; conditions: for Pasture yield: with DCD applied
Procedure: A field plot experiment was established on a Temuka soil on the Lincoln University Dairy farm to determine pasture response to DCD applications. A total of six plots, each 100 m^2 in area were set up. Fresh cow urine was collected from dairy cows and was analysed for N concentration. The urine was then applied to eight areas (0.2 m^2 each) within each plot to simulate urine patches deposited by the grazing cow. Urea was applied to the plots as per the rest of the farm at 200 kg N/ha. Phosphate fertilizer (superphosphate) was applied at 45 kg P/ha per year as per the rest of the dairy farm.
Three of the plots received the DCD treatment DCD was applied in a solution form to the whole area of each plot by spray equipment similar to those used to spray other agrochemicals. The DCD was applied twice each year (one in the autumn (May) and one in the spring (August)) at 10-15 kg/ha for each application.
Spray irrigation was applied between spring and autumn when necessary through a central pivot irrigator as per the rest of the dairy farm. Pasture from the simulated urine patch areas and from adjacent non-urine patch areas was cut and removed. Following the pasture cut, the plots were then grazed by dairy cows.
Dry matter yield was recorded from the urine patch and non-urine patch areas (Table 2). Pasture yield was calculated at the paddock scale as described above (Table 2).

[5] = test system: nitrification in soil (oxidation of NH4+ to NO2−); assay: Potassium, calcium and magnesium leaching losses, paddock-averaged; conditions: calculated paddock average
From the text: as §1, §2, §3, §4, §5

nitrification in soil [6] = conditions: cited from earlier work; remark: listed apart in the source

N#CN=C(N)N [DCD, dicyandiamide]
Total nitrous oxide emission ([1]; autumn application, 26.7 (5.9) without DCD): 7.0 (2.3) kg N2O/ha | Total nitrous oxide emission ([1]; spring application, 18.0 (2.9) without DCD): 4.5 (0.7) kg N2O/ha | Nitrous oxide (N2O) emissions ([1]; spring urine application, 18.0 without DCD): 4.5 kg N2O—N ha−1 | Nitrous oxide (N2O) emissions ([1]; urine application in autumn, 26.7 without DCD): 7.0 kg N2O—N | Reduction of NO3−-N leaching, annual average ([2]; average of autumn and spring urine): 59% | Paddock averaged NO3−-N concentration in the drainage water ([2]; calculated paddock average, urea 200 + grazing, urine patches 25% of paddock, DCD applied): 7.7 mg N L−1 | Leaching losses from paddock (annual NO3−-N) ([2]; calculated paddock average, urea 200 kg N ha−1 y−1 + grazing, urine patches 25% of paddock (3 cows per ha), DCD applied): 46 kg N ha−1 y−1 and 46.1 kg N ha−1 y−1 | Total annual NO3−-N leaching loss ([2]; autumn urine, P 90 treatment, with DCD (Treatment 6), 488 without DCD): 112 kg N ha−1 y−1 | Total annual NO3−-N leaching loss ([2]; urine 1000 kg N ha−1 applied in autumn, with DCD (Treatment 4), 516 without DCD): 128 kg N ha−1 y−1 | Total annual NO3−-N leaching loss ([2]; urine applied in spring, with DCD (Treatment 8), 397 without DCD): 230 kg N ha−1 y−1 | Reductions in the amount of urine N leached ([2]; span spring to autumn urine application): 42.1-76.1% | Reduction of NO3−-N leaching ([2]; urine-N applied in the autumn, average): 76% and 76.1% | Reduction of NO3−-N leaching ([2]; urine-N applied in the spring): 42% and 42.1% | Reduction in N leached achieved by applying DCD (nitrification in soil [3]; DCD added to dairy farm effluent, repeated, high effluent-N loadings during winter): not sufficient to avert high N losses and environmental damage | Reduction in the amount of NO3−-N leached (nitrification in soil [3]; DCD combined with farm dairy effluent (dirty water)): 18% | Increase in pasture N off-take ([4]; autumn urine treatments): 23% | Increase in pasture N off-take, annual average ([4]; average of autumn and spring): 16% | Increase in pasture yields ([4]; autumn urine treatments, average): 49% | Increase in pasture yields ([4]; spring urine treatments): 17.5% | Increase in pasture N off-take ([4]; spring urine treatments): 9% | Annual average increase in pasture production ([4]; treating the whole surface area with DCD): more than 15% | Pasture production ([4]; with DCD, 11.4 without DCD): 15.0 t ha−1 y−1 | Paddock averaged pasture yield (grazed dairy pasture; field plots, Temuka soil, calculated paddock average, with DCD, 11.1 without DCD): 13.0 t ha−1 y−1 | Pasture yield (grazed dairy pasture; field plots, Temuka soil, non-urine patch areas, 10.3 without DCD): 12.3 t ha−1 y−1 | Pasture yield (grazed dairy pasture; field plots, Temuka soil, urine patch areas, 13.4 without DCD): 15.1 t ha−1 y−1 | Increase of pasture production from the whole of the grazed pasture (grazed dairy pasture; paddock average, Table 2): more than 15% | % decrease due to DCD, calcium (Ca2+) leaching [5]: 50% | % decrease due to DCD, magnesium (Mg2+) leaching [5]: 52% | % decrease due to DCD, potassium (K+) leaching [5]: 65% | Leaching losses of magnesium (Mg2+), with DCD ([5]; 25% of area urine patches, 17 without DCD): 8 kg ha−1y−1 | Leaching losses of potassium (K+), with DCD ([5]; 25% of area urine patches, 48 without DCD): 17 kg ha−1y−1 | Leaching losses of calcium (Ca2+), with DCD ([5]; 25% of area urine patches, 213 without DCD): 107 kg ha−1y−1 | Response in pasture yield or N uptake to DCD application (nitrification in soil [6]; dairy cattle urine patches, field): no significant response | Effect on nitrification rate in the soil (nitrification in soil [6]; measured in the field): slowed down the nitrification rate in the soil
